Source: patent US20140263071A1, “METHOD FOR COLLECTING METALS” (CHEMEC OY AB, priority 2011, published 2014)
Read-outs that look alike come from different tables or passages of the source.

Legend:
[1] = Solubility of the compounds, molybdenum blue method, UV/Vis 880 nm (Example 6); type: physicochemical; settings: saturated aqueous solution
Description: The low solubility is achieved by using long carbon chain(s) or aromatic ring(s) in the bisphosphonate structure I. Advantageously, compound I contains 7-16 carbon atoms either in chain, branched chain or cyclic structure or in combination of these structural units between A and X, and preferably in the chain starting from the P-C-P bridging carbon and the number of heteroatomic functional groups excluding the phosphorous functionalities are limited to two or three groups. The solubility decreases even more if compound I contains functional groups which are capable to form twitter ions with each other. Typical examples of twitter ions are acids (e.g., —CO2H or —PO3H2) and bases (amines) in the same molecule. Solubilities of selected bisphosphonate compounds I were determined with UV/Vis spectrophotometer at 880 nm using molybdenum blue method (Finnish Standard Association SFS 3026: Determination of phosphate in water. Finnish Standard Association SFS, Helsinki Finland, 1986).
Solubilities of selected compounds were determined with UV/Vis Spectrophotometer at 880 nm using molybdenum blue method from saturated aqueous samples solutions (Finnish Standard Association SFS 3026: Determination of phosphate in water. Finnish Standard Association SFS, Helsinki Finland, 1986).

[2] = Concentration of diluted samples, recovery after 1:10000 dilution (Example 24); settings: 1e 1 g in 10 liters
Method: A water solution (100 ml) containing 100 ppb of desired metallic element prepared from Merch Titrisol® standard was diluted to 10 liters of water, pH was adjusted and the mixture was treated with 1e (1 g) for 24 h with stirring. After filtration trough sintered disc (porosity G-4), the solids were decomposed by using microware digestion, the residue was dilution to known volume of water (10 ml) and metal concentrations were determined by using AAS method.

[3] = Expulsion of Cu^2+, Ni^2+ and Fe^3+ without and with activated carbon (Example 9); settings: pH 3, without activated carbon
Method: (§1) A water solution (110 ml) containing known amount of single cationic element or elements, typically 0.5-200 ppm, was prepared from Merch Titrisol® standard solution. After adjusting pH by using acid (e.g. HCl or HNO3) or base (e.g. NaOH) to desired initial value, sample A (10 ml) was taken followed by adding 100 mg of selected solid complexation agent. The mixture was stirred at room temperature for 24 h and sample B (10 ml) was taken. Samples A and B were filtrated separately trough 0.2 μm syringe filter and the concentration of the studied element or elements in both solution was determined by using atomic absorption spectrophotometer. The expulsion percent was determined from the concentration differences between the sample solutions A and B.
Using the general procedure described above expulsion percent of Cu^2+, Ni^2+ and Fe^3+ cations were determined at pH 3, when compounds 2a, 2b, 5b, 6b and 6c were used as complexation agents. Experiments were repeated also by adding activated carbon (100 mg) to solution at the same time with the used complexation agent.

[4] = Collection of Cu^2+ ions from solution with the prepared bisphosphonates (Example 26); settings: 1.00 ppm Cu^2+; pH 3; 50 mg bisphosphonate in 50 ml
Method: as §1
A solution containing 1.00 ppm of Cu^2+ cations at pH 3 was prepared and 50 ml of that solution was treated with the desired solid bisphosphonate (50 mg) using the procedure described in general procedure. Collection-% was determined for the following compounds (Cu^2+ collection-% in parenthesis): 3a (16%), 3b (88%), 3c (93%), 4 (95%), 5a (20%), 5b (18%), 5c (85%), 6b (48%), 6c (100%), 6d (100%), 7a (88%), 7b (100%), 8b (85%), 8c (88%), 8d (94%), 8e (73%) and 9b (76%).

[5] = Removal of Cr^3+ from acidic solution, TS 4 diluted 1:100 (Example 19); settings: TS 4 diluted 1:100, pH 3.67, 1.0 g agent in 50 ml, 24 h
Method: A test solution containing 24000 mg/l of Na^+; 50-2000 mg/l of Ca^2+, Cr^3+, K^+ and Mg^2+; and trace amount of Al^3+, Fe^2/3+, Mn^2+, Ni^2+, Sr^2+, V^4+, and Zn^2+ cations were prepared.
TS 4 was diluted to 1:100 with water, pH (3.67) of the solution was determined and sample A was taken. A part (50 ml) of the diluted solution was treated with 1a, 6d or 7a (1.0 g) for 24 h with stirring at room temperature. After filtration trough 0.2 μm syringe filter, the expulsion per for Cr(III) was determined compared to original solution A. The results of expulsion per cents of Cr^3+ and some other elements are given in Table 13.

[6] = read-out: mg/l (solubility calculated for whole molecule)
[7] = read-out: mg/l P (solubility calculated as elemental phosphorus)

SMILES	solubility [1, 6]	solubility [1, 7]	Cu^2+ collection-% [4]	other results
NCCCCCCCC(O)(P(=O)(O)O)P(=O)(O)O [Compound 1b, 8-Amino-1-hydroxyoctane-1,1-diyldiphosphonic acid]	2220 mg/L	426 mg/L		
NCCCCCCCCC(O)(P(=O)(O)O)P(=O)(O)O [Compound 1c, 9-Amino-1-hydroxynonane-1,1-diyldiphosphonic acid]	2180 mg/L	400 mg/L		
NCCCCCCCCCC(O)(P(=O)(O)O)P(=O)(O)O [Compound 1d, 10-Amino-1-hydroxydecane-1,1-diyldiphosphonic acid]	227 mg/L	40 mg/L		
NCCCCCCCCCCCC(O)(P(=O)(O)O)P(=O)(O)O [Compound 1e, 12-Amino-1-hydroxydodecane-1,1-diyldiphosphonic acid]	31 mg/L	5 mg/L		Yield [%] (recovery) ([2]; Cd^2+, pH 3.6): 98%; Yield [%] (recovery) ([2]; Cr^3+, pH 3.0): 98%; Yield [%] (recovery) ([2]; Cr^3+, pH 7.0): 97%; Yield [%] (recovery) ([2]; Hg^2+, pH 2.0): 93%; Yield [%] (recovery) ([2]; Hg^2+, pH 4.9): 94%; Yield [%] (recovery) ([2]; Hg^2+, pH 9.2): 94%; Yield [%] (recovery) ([2]; Hg^+, pH 2.0): 89%; Yield [%] (recovery) ([2]; Hg^+, pH 5.0): 92%; Yield [%] (recovery) ([2]; Hg^+, pH 9.2): 92%; Yield [%] (recovery) ([2]; Pb^2+, pH 3.2): 100%; Yield [%] (recovery) ([2]; Pb^2+, pH 5.0): 85%; Yield [%] (recovery) ([2]; UO2^2+, pH 3.0): 87%
NCCCCCCCCCCCCCCCC(O)(P(=O)(O)O)P(=O)(O)O [Compound 1f, 16-Amino-1-hydroxyhexadecane-1,1-diyldiphosphonic acid]	42 mg/L	6 mg/L		
CNCCCCCCCCCCC(O)(P(=O)(O)O)P(=O)(O)O [Compound 2a, 1-Hydroxy-11-(methylamino)undecane-1,1-diyldiphosphonic acid]	594 mg/L	97 mg/L		Expulsion [%] Cu^2+ [3]: 16.4%; Expulsion [%] Fe^3+ [3]: 44.7%; Expulsion [%] Ni^2+ [3]: 13.3%
O=P(O)(O)C(O)(CCCCCCCCCCO)P(=O)(O)O [Compound 2b, 1,11-Dihydroxyundecane-1,1-diyldiphosphonic acid]	22900 mg/L	3870 mg/L		Expulsion [%] Cu^2+ [3]: 100.0%; Expulsion [%] Fe^3+ [3]: 92.6%; Expulsion [%] Ni^2+ [3]: 6.9%
CCCCCCCC/C=C\CCCCCCCC(O)(P(=O)(O)O)P(=O)(O)O [Compound 4, (Z)-1-Hydroxyoctadec-9-ene-1,1-diyldiphosphonic acid]			95%	
C[N+](C)(C)CCCCCCCCCCC(O)(P(=O)(O)O)P(=O)(O)O.[Cl-] [Compound 8b, 11-Hydroxy-N,N,N-trimethyl-11,11-diphosphonoundecan-1-aminium chloride]			85%	
CC(=O)NCCCCCCCCCCC(O)(P(=O)(O)O)P(=O)(O)O [Compound 8c, 11-Acetamido-1-hydroxyundecane-1,1-diyldiphosphonic acid]			88%	
O=C(O)CCCCCCCCCCSCC(P(=O)(O)O)P(=O)(O)O [Compound 8d, 11-((2,2-diphosphonoethyl)thio)undecanoic acid]			94%	
O=C(O)CCCCCNCC(P(=O)(O)O)P(=O)(O)O [Compound 8e, 6-((2,2-diphosphonoethyl)amino)hexanoic acid]			73%	
CCCCCCCCCCCC(=O)OC(C)(P(=O)(O)O)P(=O)(O)O [Compound 9b, 1-(Dodecanoyloxy)ethane-1,1-diyldiphosphonic acid]			76%	

Continued, in another order:

solubility [1, 6]	solubility [1, 7]	SMILES	Cu^2+ collection-% [4]	other results
54 mg/L	12 mg/L	CCCCCC(O)(P(=O)(O)O)P(=O)(O)O [Compound 3a, 1-Hydroxyhexane-1,1-diyldiphosphonic acid]	16%	
5 mg/L	1 mg/L	CCCCCCCCC(O)(P(=O)(O)O)P(=O)(O)O [Compound 3b, 1-Hydroxynonane-1,1-diyldiphosphonic acid]	88%	
	0.3 mg/L	CCCCCCCCCCC(O)(P(=O)(O)O)P(=O)(O)O [Compound 3c, 1-Hydroxyundecane-1,1-diyldiphosphonic acid]	93%	
	1.8 mg/L	O=P(O)(O)C(O)(CCCCc1ccccc1)P(=O)(O)O [Compound 5a, 1-Hydroxy-5-phenylpentane-1,1-diyldiphosphonic acid]	20%	
	79 mg/L	Nc1ccc(CCCC(O)(P(=O)(O)O)P(=O)(O)O)cc1 [Compound 5b, 4-(4-Aminophenyl)-1-hydroxybutane-1,1-diyldiphosphonic acid]	18%	Expulsion [%] Cu^2+ [3]: 21.4%; Expulsion [%] Fe^3+ [3]: 56.3%; Expulsion [%] Ni^2+ [3]: 7.9%
	0.2 mg/L	O=P(O)(O)C(O)(CCCCCCc1ccccc1)P(=O)(O)O [Compound 5c, 1-Hydroxy-7-phenylheptane-1,1-diyldiphosphonic acid]	85%	
	0.7 mg/L	CCCCCCCCCCC(P(=O)(O)O)P(=O)(O)O [Compound 6b, Undecane-1,1-diyldiphosphonic acid]	48%	Expulsion [%] Cu^2+ [3]: 1.3%; Expulsion [%] Fe^3+ [3]: 3.9%; Expulsion [%] Ni^2+ [3]: 17.2%
	0.2 mg/L	CCCCCCCCCCCCC(P(=O)(O)O)P(=O)(O)O [Compound 6c, Tridecane-1,1-diyldiphosphonic acid]	100%	Expulsion [%] Cu^2+ [3]: 20.8%; Expulsion [%] Fe^3+ [3]: 19.0%; Expulsion [%] Ni^2+ [3]: 20.8%
	0.03 mg/L	CCCCCCCCCCCCCCCCC(P(=O)(O)O)P(=O)(O)O [Compound 6d, Heptadecane-1,1-diyldiphosphonic acid]	100%	Expulsion [%] Ca^2+ ([5]; Ca^2+): 11%; Expulsion [%] Cr^3+ [5]: 100%; Expulsion [%] K^+ ([5]; K^+): 52%; Expulsion [%] Mg^2+ ([5]; Mg^2+): 80%; Expulsion [%] Na^+ ([5]; Na^+): 39%
	0.08 mg/L	CCCCCCCCC(N)(P(=O)(O)O)P(=O)(O)O [Compound 7a, 1-Aminononane-1,1-diyldiphosphonic acid]	88%	Expulsion [%] Cr^3+ [5]: 85%
	0.05 mg/L	CCCCCCCCCC(N)(P(=O)(O)O)P(=O)(O)O [Compound 7b, 1-Aminodecane-1,1-diyldiphosphonic acid]	100%	
